Test results from patent US20250066864A1, “METHODS FOR IDENTIFYING ADAR1 INHIBITORS, AND COMPOSITIONS AND METHODS OF USE IN TREATING CANCER” (The Wistar Institute of Anatomy and Biology, priority 2021, published 2025).
Where a chain is given by its changes, count along the chain named. “Also recorded” adds a separate entry of the source.

Tests used:
ADAR1p110-WT = target: T1, ADAR1p110-WT (Homo sapiens, UniProt P55265); experiment: surface plasmon resonance (Biacore T200), ADAR1p110-WT; assay type: binding; conditions: SPR
T1 sequence (P55265 1-931 isoform P55265-5): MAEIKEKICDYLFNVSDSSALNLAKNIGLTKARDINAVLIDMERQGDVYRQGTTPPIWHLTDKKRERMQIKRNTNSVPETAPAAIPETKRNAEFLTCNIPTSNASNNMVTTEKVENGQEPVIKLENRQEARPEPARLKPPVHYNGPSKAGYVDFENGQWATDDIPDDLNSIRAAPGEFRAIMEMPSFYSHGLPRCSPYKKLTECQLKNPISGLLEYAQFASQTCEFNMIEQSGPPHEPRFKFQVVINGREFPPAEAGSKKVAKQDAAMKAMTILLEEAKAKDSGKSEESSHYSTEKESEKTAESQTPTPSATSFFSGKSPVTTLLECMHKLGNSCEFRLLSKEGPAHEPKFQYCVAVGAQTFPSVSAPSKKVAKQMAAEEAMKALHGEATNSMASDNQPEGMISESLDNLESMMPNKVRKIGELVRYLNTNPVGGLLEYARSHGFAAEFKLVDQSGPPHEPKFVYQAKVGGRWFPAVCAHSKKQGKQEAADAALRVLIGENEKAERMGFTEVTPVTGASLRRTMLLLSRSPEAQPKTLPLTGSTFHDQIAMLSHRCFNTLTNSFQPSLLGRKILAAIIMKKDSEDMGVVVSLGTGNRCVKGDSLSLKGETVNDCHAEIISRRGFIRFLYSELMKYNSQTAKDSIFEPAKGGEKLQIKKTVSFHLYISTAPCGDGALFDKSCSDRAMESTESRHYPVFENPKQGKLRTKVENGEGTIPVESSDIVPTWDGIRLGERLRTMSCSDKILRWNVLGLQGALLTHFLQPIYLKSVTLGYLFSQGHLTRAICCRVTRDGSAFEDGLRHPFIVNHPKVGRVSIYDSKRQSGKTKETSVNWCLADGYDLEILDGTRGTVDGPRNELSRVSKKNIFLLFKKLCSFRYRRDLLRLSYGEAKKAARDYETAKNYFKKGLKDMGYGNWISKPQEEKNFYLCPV
Text: (§1) We synthesized 2 additional analogs of Compound #13 for preliminary structure activity relationships (SAR), namely, #13-Analog 1 and #13-Analog 2 (Table 3). Compound #13-Analog 1 lacks the 4-cyano moiety and #13-Analog 2 shifts the cyano to the 2-position of the phenyl ring. […] We hypothesized that the cyano-phenyl moiety will coordinate with the zinc atom in the active site when bound to ADAR1. We evaluated the ability of Compound #13 to bind to ADAR1 using surface plasmon resonance (SPR) on the Biacore T200. […] We modeled Compound #13 into the ADAR2 active site (56).

ADAR1p110-E912A = target: T2, ADAR1p110-E912A (Homo sapiens, UniProt P55265, E912A); experiment: surface plasmon resonance (Biacore T200), ADAR1p110-E912A; assay type: binding; conditions: SPR
T2 sequence (P55265 1-931 isoform P55265-5 E617A): T1 sequence (P55265 1-931 isoform P55265-5) with E617A
Text: as §1

SMILES: N#Cc1ccc(NC(=O)c2sc3ccccc3c2Cl)cc1 [Compound #13, 3-chloro-N-(4-cyanophenyl)-1-benzothiophene-2-carboxamide]
- binding to ADAR1p110 wildtype (qualitative) (ADAR1p110-WT): binds
- Kd (ADAR1p110-WT; read-out: Kd, binding to ADAR1p110-WT): ~26 µM
- binding to mutant ADAR1p110-E912A (ADAR1p110-E912A): did not bind; also recorded: not to mutant E912A
